According to article PMC8667925, “New 1,2,4-oxadiazole derivatives with positive mGlu4 receptor modulation activity and antipsychotic-like properties” (Journal of Enzyme Inhibition and Medicinal Chemistry, 2021):
Like-named read-outs stand apart in the source and are kept apart here.

How the values were obtained:
CYP2C19 = target: T1, CYP2C19 (Homo sapiens, UniProt P33261); assay: inhibition of cytochrome P450 isoform activity (fluorescence screening); type: biochemical; conditions: screening at 1.1, 3.3 and 10 µM
T1 construct: purchased Corning
Description: (§1) The assays for cytochrome P450 inhibition facilitate the identification of drug candidates with a lower potential for drug-drug interactions. In vitro experiments conducted to determine whether a drug inhibits a specific CYP enzyme involve an incubation of the drug with probe substrates for the CYP enzymes.
(§2) Recombinant cytochrome P450 isoforms available for the assay: CYP1A2, CYP2B6, CYP2C9, CYP2C19, CYP2D6 and CYP3A4 isoform with various probe substrates enabling fluorescence detection.
(§3) The examined compound was prepared as a 10 mM stock solution in DMSO. The following three concentrations of the test compound were used for screening determination: 1.1, 3.3 and 10 μM. […] Plates filled with solution of cofactors (NADP, G6P, MgCl2, G6PDH) as well as examined compound were scanned with a fluorescence plate reader in order to eliminate false results originating from autofluorescence of the test compounds. […] At the end of the incubation, the reaction was stopped and the fluorescence of the product was determined continuously with the specific for every product excitation as well as emission values with the use of multiwell plate scanner equipped with fluorescence measurement (Fluorescence EnSpire Multimode Plate Reader).

CYP2C9 = target: T2, CYP2C9 (Homo sapiens, UniProt P11712); assay: as above; type: biochemical; conditions: screening at 1.1, 3.3 and 10 µM
T2 construct: purchased Corning
Description: as §1, §2, §3

[1] = pharmacokinetic study, plasma and brain, after i.p. administration; type: in vivo, mice (male Albino Swiss); conditions: mouse, 10 mg/kg i.p.; for AUC / Cmax / half-life / Tmax: male, Albino Swiss, ip; for AUC: read-out: AUC (area under the curve); for Cmax: read-out: Cmax (maximum concentration); for half-life: read-out: T1/2 (terminal elimination half-life) (converted)
Description: The pharmacokinetic properties and brain uptake of 52 were further determined in mice after i.p. administration. The compound was administered at a dose of 10 mg/kg in 3% DMSO + 20% Captisol in water. The concentration of 52 was monitored in the plasma and the brain at six time points over 6 h (Figure 5).
The method described below was successfully applied to a pharmacokinetic study of 52 in mice (male Albino Swiss) after i.p. injection. Compound 52 was administered to mice at a dose of 10 mg/kg i.p. At 0.25, 0.50, 1.0, 2.0, 4.0, and 6.0 h (three animals were used for one time point) the mice were anaesthetised by the use of Morbital (Biowet, Puławy, Poland), and the blood was collected from the portal vein to tubes containing 5% EDTA. The mice were then perfused with 0.1 M PBS to remove remaining blood from the body, and the brains were taken out for the analysis. Blood was centrifuged at 2000 rpm for 10 min at 4 °C, and the plasma was collected and frozen at −80 °C for further analysis. Plasma and tissue samples from all drug-treated animals were thawed at room temperature prior to use. Standard protocol of sample preparation: 200 µL of acetonitrile was added to the Eppendorf tubes with 50 µL of studied plasma samples or tissue homogenate. Samples were mixed for 5 min on a mixer at 25 °C and 1400 rpm. Tubes were then centrifuged at 2000 × g for 15 min at 4 °C. A total of 180 µL of each supernatant was transferred to a plate well. Finally, each sample was injected onto the LC-MS column. Calibration curve serial dilution method: Plasma was spiked with a standard at different concentrations. Acetonitrile was added. After mixing and centrifugation, the supernatant was collected.
Plasma and tissue samples from all drug-treated animals at selected time points were analysed using a previously developed non-validated LC-MS/MS method. […] LC-MS analysis was carried out on a Bruker amaZon SL mass spectrometer using positive/negative ion ESI mode. Chromatographic separation was achieved on an Ascentis Express C18 column (5 cm × 2.1 mm, […], Supelco Technologies) at room temperature with a thermostatted column oven. A gradient elution of eluents A (acetonitrile (LiChrosolv, Reag. Ph Eur) + 0.1% formic acid (Sigma Aldrich, 98–100%)) and B (water +0.1% formic acid) was used for separation. The flow rate was set at 1 ml/min. The injection volume was 20 µL, and the time of injection was 4 min.

T1 sequence (P33261 whole entry, canonical isoform): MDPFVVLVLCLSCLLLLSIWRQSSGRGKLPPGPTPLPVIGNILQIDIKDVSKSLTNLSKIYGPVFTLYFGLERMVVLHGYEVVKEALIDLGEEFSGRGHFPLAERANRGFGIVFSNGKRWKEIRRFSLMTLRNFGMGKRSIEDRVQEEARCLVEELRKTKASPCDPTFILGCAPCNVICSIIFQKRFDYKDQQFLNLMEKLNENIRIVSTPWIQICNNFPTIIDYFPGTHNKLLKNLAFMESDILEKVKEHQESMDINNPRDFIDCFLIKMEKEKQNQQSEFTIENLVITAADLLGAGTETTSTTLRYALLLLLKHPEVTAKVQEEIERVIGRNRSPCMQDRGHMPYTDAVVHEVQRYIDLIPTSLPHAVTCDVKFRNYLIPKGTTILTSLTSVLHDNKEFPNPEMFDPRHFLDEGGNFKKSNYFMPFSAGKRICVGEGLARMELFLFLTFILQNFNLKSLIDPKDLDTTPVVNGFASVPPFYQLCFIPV
T2 sequence (P11712 whole entry): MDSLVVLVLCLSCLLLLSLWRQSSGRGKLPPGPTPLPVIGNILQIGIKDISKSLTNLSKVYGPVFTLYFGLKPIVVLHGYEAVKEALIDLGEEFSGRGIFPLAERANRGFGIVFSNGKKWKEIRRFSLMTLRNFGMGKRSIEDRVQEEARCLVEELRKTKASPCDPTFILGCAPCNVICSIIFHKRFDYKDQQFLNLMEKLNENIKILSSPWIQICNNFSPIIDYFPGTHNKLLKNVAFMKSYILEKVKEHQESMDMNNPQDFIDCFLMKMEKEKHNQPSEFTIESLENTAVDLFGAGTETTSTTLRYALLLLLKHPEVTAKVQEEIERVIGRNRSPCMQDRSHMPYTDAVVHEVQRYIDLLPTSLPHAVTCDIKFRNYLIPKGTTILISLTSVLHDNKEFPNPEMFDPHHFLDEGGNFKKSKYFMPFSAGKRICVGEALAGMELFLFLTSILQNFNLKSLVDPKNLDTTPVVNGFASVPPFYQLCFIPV

O=C(Nc1ccc(-c2noc(-c3ccccc3Cl)n2)c(Cl)c1)c1ccccn1 [Compound 52, N-(3-chloro-4-(5-(2-chlorophenyl)-1,2,4-oxadiazol-3-yl)phenyl)picolinamide]
IC50 (CYP2C19): 3.3 to 10 µM | IC50 (CYP2C9): 3.3 to 10 µM | maximum brain concentration ([1]; brain): 949.76 ng/mL | AUC ([1]; brain): 5.64 µM·h | Cmax ([1]; brain): 2120 nM | half-life ([1]; brain): 136 min | Tmax ([1]; brain, read-out: Tmax (converted)): 30 min | AUC ([1]; plasma): 0.37 µM·h | Cmax ([1]; plasma): 540 nM | half-life ([1]; plasma): 66 min | Tmax ([1]; plasma, read-out: Tmax (time at maximum observed concentration)): 15 min | maximum plasma concentration ([1]; plasma): 243.22 ng/mL
